Here are results for five compounds from US8536168B2 (Novartis AG, priority 2007, dated 2013).

In assay [1] the target is mouse Smoothened receptor (Mus musculus, UniProt P56726). As to the kind of experiment: Smo binding assay, displacement of radio-labeled smoothened agonist, filter binding format (mouse). The following applies: displacement of small molecule agonist of Smoothened, read-out: Mouse Smo bdg., IC50. The source says:
A Smo binding assay was developed using radio-labeled smoothened agonist for compound competition.

The target in assay [2] is human Smoothened receptor (Homo sapiens, UniProt Q99835). Nature of the assay: Smo binding assay, displacement of radio-labeled smoothened agonist, filter binding format (human). Conditions: displacement of small molecule agonist of Smoothened, read-out: Human Smo bdg., IC50. The source says: A Smo binding assay was developed using radio-labeled smoothened agonist for compound competition. Table 9 lists the IC50 for displacement of a small molecule agonist of Smoothened determined in a filter binding format for the mouse and human Smoothened receptor.

The test system of a further assay is Gli-luciferase activity. Nature of the assay: Reporter gene assay (RGA) in TMHh12 cells, antagonism of Gli-luciferase activity in the presence of a Smo agonist. The format is cell-based. How it is done: Activity of the compounds was evaluated using a reporter gene assay (RGA) in TMHh12 cells.
For orientation: Reporter assays use an easily measured gene product as a stand-in for the process of interest.

The mark [3] stands for this setting: 25 nM small molecule Smo agonist, read-out: RGA (25 nM Smo agonist) IC50.
[4] abbreviates: read-out: RGA (1 nM Smo agonist) IC50, 1 nM small molecule Smo agonist.

Like-named read-outs stand apart in the source and are kept apart here.

human Smoothened receptor, sequence (Q99835 28-787): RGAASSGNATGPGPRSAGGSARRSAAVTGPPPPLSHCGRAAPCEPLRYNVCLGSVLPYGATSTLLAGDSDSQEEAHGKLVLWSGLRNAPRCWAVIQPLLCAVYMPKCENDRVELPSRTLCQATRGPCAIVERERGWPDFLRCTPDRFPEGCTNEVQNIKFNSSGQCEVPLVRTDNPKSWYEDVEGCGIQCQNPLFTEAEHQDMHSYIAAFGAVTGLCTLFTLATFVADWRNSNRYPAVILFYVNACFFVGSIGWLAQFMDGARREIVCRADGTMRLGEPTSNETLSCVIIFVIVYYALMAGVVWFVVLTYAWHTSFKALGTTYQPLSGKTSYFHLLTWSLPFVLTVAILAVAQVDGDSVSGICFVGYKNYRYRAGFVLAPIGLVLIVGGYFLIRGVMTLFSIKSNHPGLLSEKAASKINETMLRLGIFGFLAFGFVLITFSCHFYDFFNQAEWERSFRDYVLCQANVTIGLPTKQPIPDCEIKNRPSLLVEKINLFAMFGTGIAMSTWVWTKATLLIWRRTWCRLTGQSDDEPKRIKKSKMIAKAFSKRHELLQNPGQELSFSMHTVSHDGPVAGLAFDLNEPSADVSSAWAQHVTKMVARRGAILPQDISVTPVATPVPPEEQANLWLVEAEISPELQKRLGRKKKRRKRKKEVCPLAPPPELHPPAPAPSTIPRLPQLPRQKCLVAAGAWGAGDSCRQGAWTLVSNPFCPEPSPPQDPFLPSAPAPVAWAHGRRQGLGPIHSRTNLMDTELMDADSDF
mouse Smoothened receptor, sequence (P56726 33-793): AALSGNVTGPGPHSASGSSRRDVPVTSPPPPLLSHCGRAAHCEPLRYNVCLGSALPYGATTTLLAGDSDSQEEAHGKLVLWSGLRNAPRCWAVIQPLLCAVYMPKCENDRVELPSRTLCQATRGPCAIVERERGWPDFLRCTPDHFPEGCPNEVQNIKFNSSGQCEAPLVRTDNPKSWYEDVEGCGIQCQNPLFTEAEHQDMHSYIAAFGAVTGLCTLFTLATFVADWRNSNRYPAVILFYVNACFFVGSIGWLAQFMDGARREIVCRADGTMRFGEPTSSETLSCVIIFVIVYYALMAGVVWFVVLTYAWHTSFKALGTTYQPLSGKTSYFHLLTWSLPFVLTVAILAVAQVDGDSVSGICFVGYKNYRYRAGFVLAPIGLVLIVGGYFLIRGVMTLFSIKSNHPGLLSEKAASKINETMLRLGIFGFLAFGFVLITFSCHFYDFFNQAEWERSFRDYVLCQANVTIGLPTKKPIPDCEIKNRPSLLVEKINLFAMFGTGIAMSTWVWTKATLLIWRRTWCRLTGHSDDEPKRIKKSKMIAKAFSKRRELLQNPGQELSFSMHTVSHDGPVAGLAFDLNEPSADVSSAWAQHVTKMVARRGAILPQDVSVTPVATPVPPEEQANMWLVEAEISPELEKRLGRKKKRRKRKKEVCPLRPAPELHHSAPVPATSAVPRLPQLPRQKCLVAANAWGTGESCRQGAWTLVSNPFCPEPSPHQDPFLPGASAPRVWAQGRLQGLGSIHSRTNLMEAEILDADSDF

As to `FC(F)(F)c1ccc(N2CCN(c3nnc(Cc4ccccc4)c4occc34)CC2)nc1` [Example 245, 7-Benzyl-4-[4-(5-trifluoromethyl-pyridin-2-yl)-piperazin-1-yl]-furo[2,3-d]pyridazine], the IC50 (usually the concentration at which inhibition is half-maximal) is 100 to 1000 nM in assay [1], 100 to 1000 nM in assay [2], 1000 to 10000 nM in the assay with Gli-luciferase activity (setting [3]) and below 100 nM with Gli-luciferase activity (setting [4]).

For the compound `FC(F)(F)c1ccc(N2CCN(c3nnc(Cc4ccccc4)c4ccoc34)CC2)nc1` [Example 246, 4-Benzyl-7-[4-(5-trifluoromethyl-pyridin-2-yl)-piperazin-1-yl]-furo[2,3-d]pyridazine], the half-inhibitory concentration (IC50) in assay [1] was 10000 to 40000 nM; in assay [2] it was 1000 to 10000 nM; in the assay with Gli-luciferase activity (setting [3]) it was 1000 to 10000 nM; in the assay on Gli-luciferase activity (setting [4]) it was below 100 nM.

Consider `Cc1cc(N2CCN(c3ccc(C#N)cn3)CC2)nnc1Cc1ccc(F)cc1` [Example 85], for which the IC50 (in assay [1]; in assay [2]; in the assay with Gli-luciferase activity (setting [4])) was 100 to 1000 nM throughout.

As for `N#Cc1ccc(Cn2cc(C3CCN(c4ccc(C(F)(F)F)cn4)CC3)c3ccccc32)cc1` [Example 96], the IC50 in assay [1] is 100 to 1000 nM; in assay [2] it was 100 to 1000 nM; in the assay with Gli-luciferase activity (setting [3]) it was 100 to 1000 nM; in the assay on Gli-luciferase activity (setting [4]), below 100 nM.

For `Cc1nc(N2CCN(c3nnc(Cc4ccccc4)c4ccccc34)CC2)ccc1C#N` [Example 130], the concentration for half-maximal inhibition (IC50) in assay [1] lay in the range of 1000 to 10000 nM; in assay [2] it was 1000 to 10000 nM; in the assay on Gli-luciferase activity (setting [3]), 1000 to 10000 nM; in the assay with Gli-luciferase activity (setting [4]), 100 to 1000 nM.
